Experimental data from US20220226342A1, “COMPOSITIONS AND METHODS OF TREATING LIVER CANCERS” (The Johns Hopkins University, priority 2019, published 2022).

Columns and labels:
PDX26-3 = tested on: PDX26-3
Method: FIG. 7A-7I. […] Significance was determined with log rank test. […] Error bars represent Mean±standard deviation. […] (7J).
Patient derived xenograft (PDX) models of human cancer are well documented to recapitulate primary tumor biology, as well as response to treatment^28, 29. Two PDX models from HCC patients were established in the inventors' lab with the purpose of creating a platform for further validation of drug leads. The first model, PDX26-3, was established by subcutaneous injection of HCC PDO cells into NOD SCID-IL2R-γ chain-deficient mice (NSG, Jackson Lab). More specifically, PDX26-3 is established from PDO26-3 cells at passage 3. After the initial PDX establishment, the model is perpetuated by implantation of pieces of tumors from current generation PDX mice into the next (as described in Materials and Methods).

[1] = tested on: global protein synthesis in 6 HCC PDOs; assay: OP-Puro incorporation assay (EZClick Global Protein Synthesis Assay); assay type: cell-based, human
Excerpt: FIG. 3A-3H. Mechanism of Omacetaxine action on different HCC patient derived organoids lines. (3A). […] (3B). […] (3C) The mean fluorescence intensity ratio reflected protein synthesis rate of the plots data in (a). (3D-3H).

6 HCC PDO lines [2] = assay: cell cycle analysis; assay type: cell-based, human
Method: FIG. 6A-6B. Cell cycle analysis of omacetaxine treated HCC PDOs. […] (6A) The histogram of cell cycle distributions.
(§1) The effects on proliferation were assessed to elucidate the omacetaxine mechanisms of action. […] To further understand the effects of omacetaxine on cancer cell proliferation and cell cycle, the inventors performed FACS analysis of Ki67 protein. Ki-67 is a nuclear protein expressed in proliferating cells (in all phases of the cell cycle except G0)^22,23. Furthermore, the higher expression of Ki67 has been linked to poorer disease free survival and overall survival in HCC^24. […] As caspase 3 is a key molecule in apoptosis, the inventors measured its activated (cleaved) fragment.

6 HCC PDO lines [3] = assay: Annexin V / 7AAD flow cytometry apoptosis assay; assay type: cell-based, human; conditions: 700 μM, 350 μM, 96 h
Method: as §1, with “FIG. 5A-5E. Apoptosis analysis of HCC PDOs treated with omacetaxine in vitro. Organoids were plate on 24 well plate, omacetaxine at 700 μM, 350 μM were added to cell culture medium for 96 h. Then cells were collected and subjected to the analysis below. (5A and 5C). […] (5B and 5D). Flow cytometry analysis of cleaved caspase 3 expression of omacetaxine treated HCC PDOs. […] The” for “The”

`COC(=O)C[C@](O)(CCCC(C)(C)O)C(=O)O[C@@H]1C(OC)=C[C@]23CCCN2CCc2cc4c(cc2[C@H]13)OCO4` [omacetaxine, omacetaxine mepusuccinate] was tested, and the “size of the tumors at the end of the treatment” value (PDX26-3; PDX26-3, day 30, vs control) was “statistically significant difference”, the “weight of the tumors at the end of the treatment” value (PDX26-3; PDX26-3, day 30, vs control) was “statistically significant difference” and the increase in survival (PDX26-3; PDX26-3 mice, statistically significant) was “approximately 100%”. For the same compound, the tumor growth (PDX26-3; PDX26-3 mice, treatment applied directly into the tumor) was “halting of tumor growth”, the “body mass of mice, treatment vs. control group” value (PDX26-3; mouse, in vivo) was “no difference in the body mass” and the global protein synthesis ([1]; 150 nM and 700 nM, 6 HCC PDOs, 36 h) was “drastically inhibited global protein synthesis”. For the same compound, the “protein synthesis inhibition at 700 nM compared with 150 nM” value ([1]; 700 nM vs 150 nM) was “did not induce any further inhibition of protein synthesis”, the cell cycle arrest (6 HCC PDO lines [2]; 6 HCC PDOs, dose-dependent) was “induces G0/G1 arrest” and the “G0/G1 fraction with rising omacetaxine dose” value (6 HCC PDO lines [2]; all 6 HCC PDOs) was “around 90%”. The “early / late apoptosis (Annexin V, 7AAD)” value (6 HCC PDO lines [3]) was “either early apoptosis, or late apoptosis, or both were increased”.
